Assay type in all cases: cell-based
Assay [1] concerns S. aureus biofilm formation. Kind of assay: Prevention of S. aureus biofilm formation at 6 h, crystal violet (Example 9). The note with it: in combination with gentamicin, phospholipid 256, 512, 1024 μg/ml. As for the experimental part:
We performed in vitro tests of the capacity of phospholipids together with antibiotics to prevent formation of biofilms. Freshly grown S. aureus was quantitated and placed in 96-well plates together with gentamicin alone, phospholipids plus gentamicin, or control solutions. Two different phospholipids ([…]-10 and […]-12) were tested at three different phospholipid test concentrations (256 μg/ml, 512 μg/ml, and 1024 μg/ml). After 6 hours at 37 degrees C., the fluids were removed and the wells stained with crystal violet, and then the density of crystal violet in the wells was quantitated.

For assay [2], the system named is P. aeruginosa biofilm formation. Kind of assay: Prevention of P. aeruginosa biofilm formation, crystal violet (Example 5). Particulars: in combination with gentamicin; 24 h; phospholipid 1024 or 2048 μg/ml; FIGS. 8B, 8C. As for the experimental part: We performed in vitro tests of the capacity of phospholipids together with antibiotics to prevent formation of biofilms. Freshly grown P. aeruginosa was quantitated and placed in 96-well plates together with gentamicin alone, phospholipids plus gentamicin, or control solutions. Four different phospholipids (MAPCHO-10, MAPCHO-12, MAPCHO-14, and MAPCHO-16) were tested at two different phospholipid test concentrations (1024 μg/ml and 2048 μg/ml). After 24 hours at 37 degrees C., the fluids were removed and the wells stained with crystal violet, and then the density of crystal violet in the wells was quantitated.

The subject of a further assay is P. aeruginosa. Briefly: Inhibition of growth of planktonic P. aeruginosa, OD600 (Example 4). The note with it: in combination with gentamicin, compared to gentamicin alone. The protocol: We performed in vitro studies of the capacity of phospholipids together with antibiotics to inhibit the growth of planktonic bacteria. The tests were conducted as follows. Freshly grown P. aeruginosa was quantitated and placed in 96-well plates together with gentamicin alone, phospholipids plus gentamicin, or control solutions. Four different phospholipids (MAPCHO-10, MAPCHO-12, MAPCHO-14, and MAPCHO-16) were tested at two different phospholipid test concentrations (1024 μg/ml and 2048 μg/ml). After 24 hours at 37 degrees C., media was removed and fresh medium was added and the 96-well plates were incubated at 37 degrees C. for either 6 hours or 24 hours. Bacterial density was then analyzed and measured at OD600.

Assay [3] relates to S. aureus (NCTC 8325) biofilm formation. Briefly: Prevention of S. aureus (NCTC 8325) biofilm formation, crystal violet at 540 nm (Example 12). The note with it: 24 hours. The protocol: We also performed in vitro tests of the capacity of phospholipids together with antibiotics to prevent formation of biofilms. Freshly grown S. aureus (NCTC 8325) were quantitated and placed in 96-well plates together with phospholipids plus gentamicin and tobramycin (antibiotics) or antibiotics alone. After 24 hours at 37 degrees C., the fluids were removed and the wells stained with crystal violet, and then the density of crystal violet in the wells was quantitated by absorption of light at 540 nm.

The test system of assay [4] is P. aeruginosa in preformed biofilm. Briefly: Bacterial density of P. aeruginosa in preformed biofilm, OD600 (Example 7). Particulars: in combination with gentamicin; 6 h; phospholipid 512, 1024, 2048 μg/ml; FIGS. 10A-10D. The protocol:
We performed in vitro studies of the capacity of phospholipids together with antibiotics to eradicate preformed bacterial biofilms. The tests were conducted as follows. Biofilm formation was obtained by culturing P. aeruginosa in cation-adjusted Mueller Hinton Broth after incubation at 37 degrees C. for 24 hours in 96 well plates. The medium was then removed and replaced by treatment solutions of gentamicin, phospholipids plus gentamicin, or control solutions. Four different phospholipids (MAPCHO-10, MAPCHO-12, MAPCHO-14, and MAPCHO-16) were tested at three different phospholipid test concentrations (512 μg/ml, 1024 μg/ml, and 2048 μg/ml). After 24 hours at 37 degrees C., media was removed and fresh medium was added and the 96-well plates were incubated at 37 degrees C. for 6 hours. Bacterial density was then analyzed and measured at OD600.

Assay [5] concerns S. aureus (ATCC BAA-1720) biofilm formation. Briefly: Prevention of S. aureus biofilm formation, crystal violet at 540 nm (Example 2). The note with it: 24 hours. The protocol: We also performed in vitro tests of the capacity of phospholipids together with antibiotics to prevent formation of biofilms. Freshly grown S. aureus and P. aeruginosa were quantitated and placed in 96-well plates together with phospholipids plus gentamicin and tobramycin (antibiotics), phospholipids alone, antibiotics alone or controls solution. After 24 hours at 37 degrees C., the fluids were removed and the wells stained with crystal violet, and then the density of crystal violet in the wells was quantitated by absorption of light at 540 nm.

The subject of the next assay is MRSA biofilm formation. Kind of assay: Prevention of MRSA biofilm formation at 6 h, crystal violet (Example 11). Particulars: in combination with gentamicin, phospholipid 512 μg/ml and 1024 μg/ml. As for the experimental part: We performed in vitro tests of the capacity of phospholipids together with antibiotics to prevent formation of biofilms. Freshly grown MRSA was quantitated and placed in 96-well plates together with gentamicin alone, phospholipids plus gentamicin, or control solutions. Two different phospholipids (MAPCHO-10 and MAPCHO-12) were tested at three different phospholipid test concentrations (256 μg/ml, 512 μg/ml, and 1024 μg/ml). After 6 hours at 37 degrees C., the fluids were removed and the wells stained with crystal violet, and then the density of crystal violet in the wells was quantitated.

A further assay has as its system S. aureus. Briefly: Inhibition of growth of planktonic S. aureus, OD600 (Example 8). Particulars: in combination with gentamicin, compared to gentamicin alone; 6 h; phospholipid 256, 512, 1024 μg/ml. As for the experimental part: (§1) We performed in vitro studies of the capacity of phospholipids together with antibiotics to inhibit the growth of planktonic bacteria. The tests were conducted as follows. Freshly grown S. aureus was quantitated and placed in 96-well plates together with gentamicin alone, phospholipids plus gentamicin, or control solutions. Two different phospholipids (MAPCHO-10 and MAPCHO-12) were tested at three different phospholipid test concentrations (256 μg/ml, 512 μg/ml, and 1024 μg/ml). After 24 hours at 37 degrees C., media was removed and fresh medium was added and the 96-well plates were incubated at 37 degrees C. for 6 hours. Bacterial density was then analyzed and measured at OD600.

A further assay deals with MRSA. Kind of assay: Inhibition of growth of planktonic MRSA, OD600 (Example 10). The note with it: in combination with gentamicin, compared to gentamicin alone; 6 h; phospholipid 256, 512, 1024 μg/ml. The protocol: as §1, with “MRSA” for “S. aureus”

“Also recorded” adds a separate entry of the source.

As to `CCCCCCCCCCCCOP(=O)([O-])OCC[N+](C)(C)C` [MAPCHO-12, N-dodecylphosphocholine], the “prevention of S. aureus biofilm formation compared to gentamicin alone” value in assay [1] is given as “more effective”. The “prevention of P. aeruginosa biofilm formation” value in [2] is “effective at preventing”. Besides, the “inhibition of P. aeruginosa growth” value in the assay with P. aeruginosa (6 h time point, phospholipid 1024 and 2048 μg/ml) is listed as “moderate inhibition”; in the assay with P. aeruginosa (24 h time point, highest phospholipid dose 2048 μg/ml), “significant inhibition”. In addition, the “effect on formation of biofilm by S. aureus (NCTC 8325)” value in [3] (512 μg dose of phospholipid in combination with gentamicin, FIGS. 15, 16) is given as “positive effects; also recorded: able to prevent biofilm formation”; in [3] (512 μg dose of phospholipid in combination with tobramycin, FIGS. 15, 17), “positive effects; also recorded: able to prevent biofilm formation”. Moreover, in assay [3] (agent alone (antibiotic alone at low concentrations, or phospholipid alone)), the “prevention of biofilm formation by S. aureus (NCTC 8325)” value is given as “did not prevent biofilm formation”. Further, the “inhibition of P. aeruginosa bacterial growth in preformed biofilm relative to gentamicin alone” value in assay [4] was “more effective”. Further, the “prevention of biofilm formation by S. aureus” value is reported as “did not prevent biofilm formation” in assay [5] (agent alone (gentamicin alone at low concentrations, or phospholipid alone)) and “did prevent biofilm formation” in [5] (phospholipid combined with gentamicin at low concentrations, FIG. 3). Also, in the assay with MRSA biofilm formation, the “prevention of MRSA biofilm formation compared to gentamicin alone” value is “tends to be more effective”. The “inhibition of S. aureus growth” value with S. aureus was “strong inhibition”. Further, in the assay with MRSA, the “inhibition of MRSA growth” value is recorded as “strong inhibition”.

These data come from US11413297B2, “Therapies for treating and preventing chronic rhinosinusitis” (Avanti Polar Lipids, LLC, priority 2017, dated 2022).
